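1) Cells in 96-well plates. 2) Compound, 48 h, 5 concentrations. 3) Linear interpolation between surrounding doses. 4) Unreached endpoint = highest concentration. TGI marks complete inhibition of growth.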
What was measured:
Assay in all cases: growth of human tumour cells (NCI), 48 h
786-0 renal = tested on: 786-0 renal
A498 renal = tested on: A498 renal
A549 NSCLC = tested on: A549 NSCLC
ACHN renal = tested on: ACHN renal
BT-549 breast = tested on: BT-549 breast
CAKI-1 renal = tested on: CAKI-1 renal
CCRF-CEM leukemia = tested on: CCRF-CEM leukemia
COLO 205 colon = tested on: COLO 205 colon
DU-145 prostate = tested on: DU-145 prostate
EKVX NSCLC = tested on: EKVX NSCLC
HCC-2998 colon = tested on: HCC-2998 colon
HCT-116 colon = tested on: HCT-116 colon
HCT-15 colon = tested on: HCT-15 colon
HL-60(TB) leukemia = tested on: HL-60(TB) leukemia
HOP-62 NSCLC = tested on: HOP-62 NSCLC
HOP-92 NSCLC = tested on: HOP-92 NSCLC
HS 578T breast = tested on: HS 578T breast
HT29 colon = tested on: HT29 colon
IGROV1 ovarian = tested on: IGROV1 ovarian
KM12 colon = tested on: KM12 colon
M14 melanoma = tested on: M14 melanoma
MALME-3M melanoma = tested on: MALME-3M melanoma
MCF7 breast = tested on: MCF7 breast
MDA-MB-231 breast = tested on: MDA-MB-231 breast
MDA-MB-435 = tested on: MDA-MB-435
MDA-N = tested on: MDA-N
NCI-H226 lung = tested on: NCI-H226 lung
NCI-H23 lung = tested on: NCI-H23 lung
NCI-H460 lung = tested on: NCI-H460 lung
NCI-H522 lung = tested on: NCI-H522 lung
NCI/ADR-RES ovarian = tested on: NCI/ADR-RES ovarian
OVCAR-3 ovarian = tested on: OVCAR-3 ovarian
OVCAR-4 ovarian = tested on: OVCAR-4 ovarian
OVCAR-5 ovarian = tested on: OVCAR-5 ovarian
OVCAR-8 ovarian = tested on: OVCAR-8 ovarian
PC-3 prostate = tested on: PC-3 prostate
RPMI-8226 leukemia = tested on: RPMI-8226 leukemia
RXF 393 renal = tested on: RXF 393 renal
SF-268 CNS = tested on: SF-268 CNS
SF-295 CNS = tested on: SF-295 CNS
SF-539 CNS = tested on: SF-539 CNS
SK-MEL-2 melanoma = tested on: SK-MEL-2 melanoma
SK-MEL-28 melanoma = tested on: SK-MEL-28 melanoma
SK-MEL-5 melanoma = tested on: SK-MEL-5 melanoma
SK-OV-3 ovarian = tested on: SK-OV-3 ovarian
SN12C renal = tested on: SN12C renal
SNB-19 CNS = tested on: SNB-19 CNS
SNB-75 CNS = tested on: SNB-75 CNS
SW-620 colon = tested on: SW-620 colon
T-47D breast = tested on: T-47D breast
TK-10 renal = tested on: TK-10 renal
U251 CNS = tested on: U251 CNS
UACC-257 melanoma = tested on: UACC-257 melanoma
UACC-62 melanoma = tested on: UACC-62 melanoma
K-562 leukemia = tested on: K-562 leukemia
LOX IMVI melanoma = tested on: LOX IMVI melanoma
MOLT-4 leukemia = tested on: MOLT-4 leukemia
UO-31 renal = tested on: UO-31 renal

## N=c1c2c(=S)n(-c3ccccc3)c(=S)n(-c3ccccc3)c2nc(SCCCN2CCCCC2)n1-c1ccccc1
786-0 renal
  TGI: 2.28 µM
A498 renal
  TGI: 7.11 µM
A549 NSCLC
  TGI: 3.78 µM
ACHN renal
  TGI: 3.08 µM
BT-549 breast
  TGI: 3.41 µM
CAKI-1 renal
  TGI: 3.15 µM
CCRF-CEM leukemia
  TGI: 1.41 µM
COLO 205 colon
  TGI: 3.19 µM
DU-145 prostate
  TGI: 3.03 µM
EKVX NSCLC
  TGI: 3.47 µM
HCC-2998 colon
  TGI: 2.82 µM
HCT-116 colon
  TGI: 3.1 µM
HCT-15 colon
  TGI: 3.23 µM
HL-60(TB) leukemia
  TGI: 3.81 µM
HOP-62 NSCLC
  TGI: 3.38 µM
HOP-92 NSCLC
  TGI: 3.28 µM
HS 578T breast
  TGI: > 100 µM
HT29 colon
  TGI: 4.32 µM
IGROV1 ovarian
  TGI: 3.09 µM
KM12 colon
  TGI: 3.44 µM
M14 melanoma
  TGI: 3.1 µM
MALME-3M melanoma
  TGI: 3.31 µM
MCF7 breast
  TGI: 1.3 µM
MDA-MB-231 breast
  TGI: 3.05 µM
MDA-MB-435
  TGI: 3.14 µM
MDA-N
  TGI: 3.33 µM
NCI-H226 lung
  TGI: 6.84 µM
NCI-H23 lung
  TGI: 3.37 µM
NCI-H460 lung
  TGI: 4.3 µM
NCI-H522 lung
  TGI: 2.54 µM
NCI/ADR-RES ovarian
  TGI: 8.97 µM
OVCAR-3 ovarian
  TGI: 3.02 µM
OVCAR-4 ovarian
  TGI: 3.23 µM
OVCAR-5 ovarian
  TGI: 26.2 µM
OVCAR-8 ovarian
  TGI: 3.36 µM
PC-3 prostate
  TGI: 3.03 µM
RPMI-8226 leukemia
  TGI: > 100 µM
RXF 393 renal
  TGI: 3.26 µM
SF-268 CNS
  TGI: 3.55 µM
SF-295 CNS
  TGI: 12.6 µM
SF-539 CNS
  TGI: 16.7 µM
SK-MEL-2 melanoma
  TGI: 3.77 µM
SK-MEL-28 melanoma
  TGI: 5.1 µM
SK-MEL-5 melanoma
  TGI: 3.63 µM
SK-OV-3 ovarian
  TGI: 5.34 µM
SN12C renal
  TGI: 3.28 µM
SNB-19 CNS
  TGI: 9.41 µM
SNB-75 CNS
  TGI: 3.28 µM
SW-620 colon
  TGI: 5.15 µM
T-47D breast
  TGI: 5.78 µM
TK-10 renal
  TGI: 3.08 µM
U251 CNS
  TGI: 3.12 µM
UACC-257 melanoma
  TGI: 3.31 µM
UACC-62 melanoma
  TGI: 3.03 µM

## CN1C(=O)C(O)CC1c1ccc(C(F)(F)F)cc1 (configuration not stated)
786-0 renal
  TGI: > 100 µM
A498 renal
  TGI: > 100 µM
A549 NSCLC
  TGI: > 100 µM
ACHN renal
  TGI: > 100 µM
BT-549 breast
  TGI: > 100 µM
CAKI-1 renal
  TGI: > 100 µM
CCRF-CEM leukemia
  TGI: > 100 µM
COLO 205 colon
  TGI: > 100 µM
DU-145 prostate
  TGI: > 100 µM
EKVX NSCLC
  TGI: > 100 µM
HCC-2998 colon
  TGI: > 100 µM
HCT-116 colon
  TGI: > 100 µM
HCT-15 colon
  TGI: > 100 µM
HL-60(TB) leukemia
  TGI: > 100 µM
HOP-62 NSCLC
  TGI: > 100 µM
HOP-92 NSCLC
  TGI: > 100 µM
HS 578T breast
  TGI: > 100 µM
HT29 colon
  TGI: > 100 µM
IGROV1 ovarian
  TGI: > 100 µM
K-562 leukemia
  TGI: > 100 µM
KM12 colon
  TGI: > 100 µM
LOX IMVI melanoma
  TGI: > 100 µM
M14 melanoma
  TGI: > 100 µM
MALME-3M melanoma
  TGI: > 100 µM
MCF7 breast
  TGI: > 100 µM
MDA-MB-231 breast
  TGI: > 100 µM
MDA-MB-435
  TGI: > 100 µM
MDA-N
  TGI: > 100 µM
MOLT-4 leukemia
  TGI: > 100 µM
NCI-H226 lung
  TGI: > 100 µM
NCI-H23 lung
  TGI: > 100 µM
NCI-H460 lung
  TGI: > 100 µM
NCI-H522 lung
  TGI: > 100 µM
NCI/ADR-RES ovarian
  TGI: > 100 µM
OVCAR-3 ovarian
  TGI: > 100 µM
OVCAR-4 ovarian
  TGI: > 100 µM
OVCAR-5 ovarian
  TGI: > 100 µM
OVCAR-8 ovarian
  TGI: > 100 µM
PC-3 prostate
  TGI: > 100 µM
RPMI-8226 leukemia
  TGI: > 100 µM
RXF 393 renal
  TGI: > 100 µM
SF-268 CNS
  TGI: > 100 µM
SF-295 CNS
  TGI: > 100 µM
SF-539 CNS
  TGI: > 100 µM
SK-MEL-2 melanoma
  TGI: > 100 µM
SK-MEL-28 melanoma
  TGI: > 100 µM
SK-MEL-5 melanoma
  TGI: > 100 µM
SK-OV-3 ovarian
  TGI: > 100 µM
SN12C renal
  TGI: > 100 µM
SNB-19 CNS
  TGI: > 100 µM
SNB-75 CNS
  TGI: > 100 µM
SW-620 colon
  TGI: > 100 µM
T-47D breast
  TGI: > 100 µM
TK-10 renal
  TGI: > 100 µM
U251 CNS
  TGI: > 100 µM
UACC-257 melanoma
  TGI: > 100 µM
UACC-62 melanoma
  TGI: > 100 µM
UO-31 renal
  TGI: > 100 µM
